{
  "source": "ChEMBL document CHEMBL1201862",
  "about": "“PubChem BioAssay data set” (2004)",
  "key": {"[1]": {"assay": "HIV-1 AD8 envelope cell-cell fusion blockers – cherry-pick, dose response (AID 652062);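 note: potency is for inhibitors of fusion seen as a drop in luminescence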", "format": "functional, cell-based"}, "[2]": {"assay": "blockers of HIV-1 ZM109 envelope-driven cell-cell fusion – HeLa effector, CEM target cells, luciferase, cherry-pick, dose response (AID 652058)", "format": "functional, cell-based"}, "[3]": {"biological_target": "Voltage-dependent T-type calcium channel subunit alpha-1H (Homo sapiens, UniProt O95180)", "format": "functional"}, "[4]": {"assay": "blockers of HIV-1 envelope-mediated cell-cell fusion – cherry-pick, dose response (AID 652057)", "format": "functional, cell-based"}, "[5]": {"assay": "off-target signal loss in HeLa-CEM21 co-culture – HeLa F-luc CTL cells, cherry-picked, counter-screen for HIV-1 Env fusion inhibitor project, dose response (AID 652040);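 note: potency for signal decrease marking cytotoxic or nonspecific inhibition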", "format": "functional, cell-based"}, "[6]": {"biological_target": "T1, Microphthalmia-associated transcription factor (Homo sapiens, UniProt O75030)", "T1 sequence (O75030 whole entry)": "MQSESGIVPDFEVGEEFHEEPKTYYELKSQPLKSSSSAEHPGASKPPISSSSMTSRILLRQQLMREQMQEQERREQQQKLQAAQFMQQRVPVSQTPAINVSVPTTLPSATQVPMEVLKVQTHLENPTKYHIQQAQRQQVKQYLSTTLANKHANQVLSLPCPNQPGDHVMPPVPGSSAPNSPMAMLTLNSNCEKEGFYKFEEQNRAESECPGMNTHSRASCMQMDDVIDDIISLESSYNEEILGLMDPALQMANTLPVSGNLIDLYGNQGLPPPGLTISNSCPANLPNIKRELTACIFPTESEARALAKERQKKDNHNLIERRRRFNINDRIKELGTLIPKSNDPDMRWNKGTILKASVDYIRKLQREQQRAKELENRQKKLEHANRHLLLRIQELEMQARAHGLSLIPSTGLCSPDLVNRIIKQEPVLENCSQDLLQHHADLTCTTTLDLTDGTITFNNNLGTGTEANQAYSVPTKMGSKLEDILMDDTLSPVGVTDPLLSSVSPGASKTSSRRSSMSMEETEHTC", "assay": "reducers of TRPM1 reporter luminescence, concentration series – cell-based, SK-MEL-5, cherry-picked, set 3, MITF inhibitor project, dose response (AID 493073)", "format": "functional"}, "[7]": {"biological_target": "Peroxisome proliferator-activated receptor gamma/Nuclear receptor coactivator 1 (Homo sapiens, UniProt P37231)", "assay": "(§1) TR-FRET dose response biochemical High Throughput Screening assay for agonists of the steroid receptor coactivator 1 (SRC-1) recruitment by the peroxisome proliferator-activated receptor gamma (PPAR gamma): non-selective agonists. [Related pubchem assays (depositor defined):AID1300, AID1808, AID504735, AID631]", "format": "protein assay"}, "[8]": {"biological_target": "Peroxisome proliferator-activated receptor gamma/Nuclear receptor coactivator 3 (Homo sapiens, UniProt P37231)", "sequence (P37231 whole entry)": "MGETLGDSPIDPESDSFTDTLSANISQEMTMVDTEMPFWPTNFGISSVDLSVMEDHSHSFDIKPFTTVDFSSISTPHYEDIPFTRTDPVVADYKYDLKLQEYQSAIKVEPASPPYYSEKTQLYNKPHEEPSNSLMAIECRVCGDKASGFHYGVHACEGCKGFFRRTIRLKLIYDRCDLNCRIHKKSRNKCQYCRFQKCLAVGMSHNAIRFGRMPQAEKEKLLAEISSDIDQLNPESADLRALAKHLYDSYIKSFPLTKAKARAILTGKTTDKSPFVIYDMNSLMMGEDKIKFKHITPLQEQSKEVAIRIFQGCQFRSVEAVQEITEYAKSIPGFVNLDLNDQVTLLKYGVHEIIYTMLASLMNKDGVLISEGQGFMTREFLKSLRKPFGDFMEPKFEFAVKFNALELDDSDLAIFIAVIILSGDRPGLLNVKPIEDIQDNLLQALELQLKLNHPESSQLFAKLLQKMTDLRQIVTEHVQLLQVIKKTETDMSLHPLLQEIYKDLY", "sequence (Q9Y6Q9 whole entry, further chain)": "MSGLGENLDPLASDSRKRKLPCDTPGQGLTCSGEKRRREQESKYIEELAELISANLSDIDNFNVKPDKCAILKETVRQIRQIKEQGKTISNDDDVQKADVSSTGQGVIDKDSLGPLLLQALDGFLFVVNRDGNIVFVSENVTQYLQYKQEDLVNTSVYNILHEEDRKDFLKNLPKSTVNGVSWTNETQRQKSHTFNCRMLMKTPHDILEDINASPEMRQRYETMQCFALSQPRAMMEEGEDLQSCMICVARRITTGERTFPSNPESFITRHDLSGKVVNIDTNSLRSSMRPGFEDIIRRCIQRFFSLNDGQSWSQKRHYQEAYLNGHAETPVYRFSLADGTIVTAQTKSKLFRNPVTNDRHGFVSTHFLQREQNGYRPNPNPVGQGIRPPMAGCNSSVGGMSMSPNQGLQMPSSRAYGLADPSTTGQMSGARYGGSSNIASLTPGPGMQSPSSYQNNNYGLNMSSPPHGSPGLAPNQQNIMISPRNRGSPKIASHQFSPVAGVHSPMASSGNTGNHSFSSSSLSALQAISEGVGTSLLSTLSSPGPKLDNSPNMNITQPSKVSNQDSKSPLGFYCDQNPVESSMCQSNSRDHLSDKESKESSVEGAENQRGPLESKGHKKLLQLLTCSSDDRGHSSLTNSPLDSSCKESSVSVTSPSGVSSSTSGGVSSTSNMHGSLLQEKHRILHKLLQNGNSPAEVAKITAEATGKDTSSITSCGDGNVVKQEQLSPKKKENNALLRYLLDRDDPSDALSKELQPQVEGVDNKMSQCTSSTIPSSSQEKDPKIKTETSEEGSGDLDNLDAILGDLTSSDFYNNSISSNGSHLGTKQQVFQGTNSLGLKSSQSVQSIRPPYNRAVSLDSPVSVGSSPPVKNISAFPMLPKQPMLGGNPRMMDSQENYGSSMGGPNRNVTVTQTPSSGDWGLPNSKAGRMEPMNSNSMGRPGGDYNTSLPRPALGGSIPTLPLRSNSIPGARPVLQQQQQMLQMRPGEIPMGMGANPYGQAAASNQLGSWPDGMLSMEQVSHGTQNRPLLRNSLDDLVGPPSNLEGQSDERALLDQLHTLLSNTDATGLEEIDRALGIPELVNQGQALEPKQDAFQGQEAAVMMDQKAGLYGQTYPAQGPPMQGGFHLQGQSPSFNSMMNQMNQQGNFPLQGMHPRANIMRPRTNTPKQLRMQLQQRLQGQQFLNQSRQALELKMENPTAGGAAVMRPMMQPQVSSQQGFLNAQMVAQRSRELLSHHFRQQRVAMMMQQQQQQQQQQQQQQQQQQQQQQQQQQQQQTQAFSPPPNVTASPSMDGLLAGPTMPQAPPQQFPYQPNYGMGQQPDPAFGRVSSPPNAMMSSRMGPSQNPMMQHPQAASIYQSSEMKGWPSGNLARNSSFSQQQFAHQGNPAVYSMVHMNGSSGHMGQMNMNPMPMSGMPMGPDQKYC", "assay": "as §1, with “3 (SRC-3)” for “1 (SRC-1)”, “assays: 1301 (Confirmation screen.), 1048 (Primary screen.)]” for “assays (depositor defined):AID1300, AID1808, AID504735, AID631]”", "format": "functional"}, "[9]": {"biological_target": "Peroxisome proliferator-activated receptor gamma/Nuclear receptor coactivator 2 (Homo sapiens, UniProt P37231)", "sequence (P37231 whole entry)": "as the sequence (P37231 whole entry) above", "sequence (Q15596 whole entry, further chain)": "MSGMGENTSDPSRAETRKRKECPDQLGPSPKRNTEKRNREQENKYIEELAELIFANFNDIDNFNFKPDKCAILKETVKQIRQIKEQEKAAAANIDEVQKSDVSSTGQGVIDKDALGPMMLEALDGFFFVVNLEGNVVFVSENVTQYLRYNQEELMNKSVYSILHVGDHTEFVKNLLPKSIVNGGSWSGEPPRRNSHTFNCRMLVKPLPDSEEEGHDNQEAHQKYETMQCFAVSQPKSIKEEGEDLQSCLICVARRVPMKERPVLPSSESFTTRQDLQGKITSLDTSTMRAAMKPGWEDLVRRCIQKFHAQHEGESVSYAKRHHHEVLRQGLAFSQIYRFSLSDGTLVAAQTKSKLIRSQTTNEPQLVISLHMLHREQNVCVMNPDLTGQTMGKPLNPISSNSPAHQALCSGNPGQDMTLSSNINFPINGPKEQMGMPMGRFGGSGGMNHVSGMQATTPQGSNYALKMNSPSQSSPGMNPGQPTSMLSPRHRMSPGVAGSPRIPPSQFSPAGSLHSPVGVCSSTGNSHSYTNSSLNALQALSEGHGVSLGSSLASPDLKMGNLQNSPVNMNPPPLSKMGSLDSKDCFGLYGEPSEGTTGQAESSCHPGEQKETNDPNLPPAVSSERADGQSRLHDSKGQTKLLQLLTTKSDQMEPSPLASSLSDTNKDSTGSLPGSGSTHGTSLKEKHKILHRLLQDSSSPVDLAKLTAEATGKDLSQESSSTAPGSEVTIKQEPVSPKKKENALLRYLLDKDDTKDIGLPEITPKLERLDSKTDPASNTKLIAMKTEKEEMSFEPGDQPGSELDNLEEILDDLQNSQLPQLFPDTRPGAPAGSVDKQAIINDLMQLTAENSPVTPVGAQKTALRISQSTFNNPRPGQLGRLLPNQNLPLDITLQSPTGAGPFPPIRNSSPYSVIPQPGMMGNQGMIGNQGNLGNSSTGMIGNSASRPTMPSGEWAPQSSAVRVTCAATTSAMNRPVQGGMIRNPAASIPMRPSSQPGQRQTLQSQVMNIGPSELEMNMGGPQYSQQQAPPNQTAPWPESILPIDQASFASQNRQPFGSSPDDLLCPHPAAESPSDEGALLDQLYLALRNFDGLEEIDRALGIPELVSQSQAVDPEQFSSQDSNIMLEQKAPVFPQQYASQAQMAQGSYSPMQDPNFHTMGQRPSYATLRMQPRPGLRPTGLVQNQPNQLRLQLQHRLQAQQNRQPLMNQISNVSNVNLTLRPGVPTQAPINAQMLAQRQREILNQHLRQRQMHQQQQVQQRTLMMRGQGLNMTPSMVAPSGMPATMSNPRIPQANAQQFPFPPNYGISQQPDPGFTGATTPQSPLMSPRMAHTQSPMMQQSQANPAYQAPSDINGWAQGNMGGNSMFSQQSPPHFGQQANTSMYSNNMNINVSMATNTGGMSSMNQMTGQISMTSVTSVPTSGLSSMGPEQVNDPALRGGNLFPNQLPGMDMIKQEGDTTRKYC", "assay": "TR-FRET dose response biochemical High Throughput Screening assay for agonists of the steroid receptor coactivator 2 (SRC-2) recruitment by the peroxisome proliferator-activated receptor gamma (PPAR gamma): non-selective agonists. [Related pubchem assays: 1297, 1032 ]", "format": "functional"}, "[10]": {"assay": "reduction of Shn3 3'UTR-driven luciferase in osteoblasts – cell-based, Clone20 osteoblasts, firefly luciferase, cherry-picked, dose response (AID 624132)", "format": "functional"}, "[11]": {"test_system": "Streptococcus sp. 'group A'", "assay": "Streptococcus pyogenes SK(-)GAS viability under kanamycin – luminescence, BacTiterGlo, confirmation, counter-screen for streptokinase expression inhibitor project, dose response (AID 1900)", "format": "functional, organism-based"}, "INS1": {"test_system": "INS1", "assay": "INS-1E survival protection against cytokine death – cell-based, luminescence, retest, dose response (AID 449756)", "format": "functional", "conditions": "Rattus norvegicus"}, "Streptococcus": {"test_system": "Streptococcus", "assay": "GAS UMAA2166 growth inhibition – luminescence, BacTiterGlo, counter-screen for streptokinase expression inhibitor project, dose response (AID 1915)", "format": "functional, organism-based"}, "[12]": {"assay": "alpha-synuclein stem-loop luciferase translation blockers – H4 neuroglioma cells, luminescence, confirmation (AID 1988)", "format": "functional, cell-based"}, "Nonstructural protein 1": {"biological_target": "Nonstructural protein 1 (Influenza A virus, UniProt Q194T2)", "sequence (Q194T2 whole entry)": "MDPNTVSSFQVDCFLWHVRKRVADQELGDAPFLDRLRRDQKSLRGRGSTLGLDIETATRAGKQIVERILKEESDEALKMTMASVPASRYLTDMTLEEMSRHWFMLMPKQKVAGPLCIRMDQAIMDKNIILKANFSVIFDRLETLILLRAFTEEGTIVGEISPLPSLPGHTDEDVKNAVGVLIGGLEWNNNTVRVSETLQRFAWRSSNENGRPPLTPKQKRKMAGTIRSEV", "format": "functional, Influenza A virus (A/California/07/2009(H1N1))"}, "[13]": {"assay": "non-specific 3'UTR reporter inhibition in Clone20-Shn3RL – cell-based, Renilla luciferase, cherry-picked, counter-screen for Shn3 inhibitor project, dose response (AID 624133)", "format": "functional"}, "[14]": {"assay": "luciferase reporter signal suppression in cells – H4 neuroglioma cells, luminescence, dose response (AID 1990)", "format": "functional, cell-based"}, "[15]": {"assay": "loss of viability in HepG2 cells – cell-based, CellTiter-Glo, cherry-picked, cytotoxicity control for Shn3 inhibitor project, dose response (AID 624134)", "format": "functional"}, "[16]": {"biological_target": "Heat shock protein HSP 90-alpha (Homo sapiens, UniProt P07900)", "format": "functional, organism-based"}, "[17]": {"assay": "Luminescence Cell-Based Dose Response HTS to Identify Inhibitors of 5'UTR Stem-Loop Driven Prion Protein mRNA Translation in H4 Neuroglioblastoma Cells. [Related pubchem assays: 1827 (Project Summary), 1813 (Primary HTS)]", "format": "functional"}, "BJ [18]": {"test_system": "BJ", "assay": "BJ-TERT-LT-ST fibroblast viability loss – cell-based, RAS-independent, luminescence, dose response (AID 1935)", "format": "functional", "conditions": "Homo sapiens"}, "BJ [19]": {"test_system": "BJ", "assay": "BJ-TERT fibroblast viability loss – cell-based, RAS-independent, luminescence, dose response (AID 1933)", "format": "functional", "conditions": "Homo sapiens"}, "[20]": {"assay": "DRD fibroblast viability loss – cell-based, non-viral oncogenic, luminescence, dose response (AID 1934)", "format": "functional", "conditions": "Homo sapiens"}, "BJ [21]": {"test_system": "BJ", "assay": "cells", "format": "functional, cell-based", "conditions": "Homo sapiens"}, "[22]": {"assay": "Luminescence Cell-Based Dose Retest to Confirm Inhibitors of Cancer Stem Cells. [Related pubchem assays (depositor defined):AID2717, AID2721]", "format": "functional", "conditions": "Homo sapiens"}, "BJ [23]": {"test_system": "BJ", "assay": "growth inhibition of engineered Ras-driven BJ cells – cell-based, alamar blue fluorescence, cherrypicked samples, dose response (AID 2631)", "format": "functional", "conditions": "Homo sapiens"}},
  "note": "The source made the active and inactive calls.",
  "data": [
    {"smiles": "Cc1ccc(-c2nnc(N3CCN(C(=O)COc4ccccc4)CC3)c3ccccc23)cc1", "values": [
      {"measurement": "AC50", "setting": "[1]", "value": "34.9 µM (active)"},
      {"measurement": "AC50", "setting": "[2]", "value": "13.9 µM (active)"},
      {"measurement": "EC50", "setting": "[3]", "value": "4.54 µM (active)"},
      {"measurement": "AC50", "setting": "[4]", "value": "31.6 µM (active)"}
    ]},
    {"smiles": "C=C1CCN([C@@H](Cc2ccccc2)C(=O)NCCC(C)C)S(=O)(=O)c2ccccc21", "values": [
      {"measurement": "AC50", "setting": "[1]", "value": "24.1 µM (active)"},
      {"measurement": "AC50", "setting": "[2]", "value": "3.56 µM (active)"},
      {"measurement": "AC50", "setting": "[5]", "value": "6.85 µM (active)"},
      {"measurement": "AC50", "setting": "[4]", "value": "3.91 µM (active)"}
    ]},
    {"smiles": "O=C(Nc1cc(-c2nc3ncccc3o2)ccc1Cl)c1ccc([N+](=O)[O-])o1", "values": [
      {"measurement": "AC50", "setting": "[6]", "value": "5.76 µM (active)"}
    ]},
    {"smiles": "N#Cc1c(Cl)nc(SCc2ccccc2)nc1-c1ccccc1", "values": [
      {"measurement": "EC50", "setting": "[7]", "value": "4.02 µM (active)"},
      {"measurement": "EC50", "setting": "[8]", "value": "> 79.4 µM (not active)"},
      {"measurement": "EC50", "setting": "[9]", "value": "5.16 µM (active)"}
    ]},
    {"smiles": "CC(C)CN(C(=O)c1ccc(S(=O)(=O)N2CCCCC2)cc1)C1CCS(=O)(=O)C1", "note": "(stereo unspecified)", "values": [
      {"measurement": "AC50", "setting": "[2]", "value": "6.21 µM (active)"}
    ]},
    {"smiles": "COc1cccc(CNC(=O)CSc2cc(=O)n(C)c3ccccc23)c1", "values": [
      {"measurement": "EC50", "setting": "[7]", "value": "> 79.4 µM (inactive)"},
      {"measurement": "EC50", "setting": "[8]", "value": "> 79.4 µM (not active)"},
      {"measurement": "EC50", "setting": "[9]", "value": "> 79.4 µM (not active)"}
    ]},
    {"smiles": "O=C(/C=C/c1ccc(F)cc1)NC(=S)NNC(=O)c1cnccn1", "values": [
      {"measurement": "AC50", "setting": "[10]", "value": "1.39 µM (active)"},
      {"measurement": "EC50", "setting": "[11]", "value": "1.37 µM (active)"},
      {"measurement": "AC50", "setting": "INS1", "value": "1.21 µM (active)"},
      {"measurement": "EC50", "setting": "Streptococcus", "value": "2.75 µM (active)"},
      {"measurement": "EC50", "setting": "[12]", "value": "> 120 µM (not active)"},
      {"measurement": "IC50", "setting": "Nonstructural protein 1", "value": "1.56 µM (active)"},
      {"measurement": "AC50", "setting": "[13]", "value": "2.01 µM (active)"},
      {"measurement": "EC50", "setting": "[14]", "value": "11.7 µM (active)"},
      {"measurement": "AC50", "setting": "[15]", "value": "> 70 µM (inactive)"},
      {"measurement": "AC50", "setting": "[16]", "value": "3.35 µM (active)"},
      {"measurement": "EC50", "setting": "[17]", "value": "10.5 µM (active)"}
    ]},
    {"smiles": "O=c1c2cn[nH]c2[nH]c(=S)n1-c1cccc2ccccc12", "values": [
      {"measurement": "EC50", "setting": "[7]", "value": "> 79.4 µM (inactive)"},
      {"measurement": "EC50", "setting": "[8]", "value": "> 79.4 µM (not active)"},
      {"measurement": "EC50", "setting": "[9]", "value": "> 79.4 µM (not active)"}
    ]},
    {"smiles": "Cn1cnc(Sc2[nH]cnc3ncnc2-3)c1[N+](=O)[O-]", "values": [
      {"measurement": "EC50", "setting": "BJ [18]", "value": "> 150 µM (not active)"},
      {"measurement": "EC50", "setting": "BJ [19]", "value": "> 150 µM (not active)"},
      {"measurement": "EC50", "setting": "[20]", "value": "13 µM (active)"},
      {"measurement": "EC50", "setting": "BJ [21]", "value": "8.4 µM (active)"},
      {"measurement": "AC50", "setting": "[22]", "value": "1.42 µM (active)"},
      {"measurement": "EC50", "setting": "BJ [23]", "value": "> 133 µM (inactive)"}
    ]}
  ]
}
